Results on one compound are retold here after patent US5776929A, “Benzodiazepine derivative” (Shionogi & Co., Ltd., priority 1993, dated 1998).

Common to all, as to format: in vivo, rat (male Sprague Dawley)
Test [1] deals with gastric damage due to stress induced by restricted water-immersion. Kind of test: Gastric damage due to stress induced by restricted water-immersion (single administration). To be noted: for lesion index (% to control): 10 rats. Here is the method:
(§1) Male Sprague Dawley rats weighing from 240 to 280 g were used as experimental animals.
(§2) As H2 B, famotidine, and as gastrin receptor antagonist, L-365,260 described in Example 281 of Japanese Patent Publication (KOKAI) 63-238069 (EP 167,919; EP 284,256; U.S. Pat. No. 4,820,834; U.S. Pat. No. 5,004,741)), were used. […] For administration, a suspension of 10 mg famotidine or L-365,260 in 1 ml vehicle (0.5% methyl cellulose solution) was prepared. The combined formulation is a mixture of an equal amount of each suspension.
(§3) A previously determined dose of each test compound (1.0 ml or 3.0 ml/kg) was charged in a syringe and administered orally to a rat directly into gaster using a stainless probe needle (.phi.1.2×L 80 mm) equipped to the syringe.
(1) Gastric damage due to stress induced by restricted water-immersion (single administration test)
Twenty four hour starved (ad libitum for water) male Sprague Dawley rats (270-290 g) were orally administered with a test compound and, 30 min later, were loaded with stress in the following manner. Rats were placed in a stress cage (Natsume Seisakusyo) and immersed in water tank at 23° C. upto the level of pectoral processus xiphoideus [Takagi et al, Chem. Pharm. Bull (Tokyo) 12, 465-472 (1964)]. Seven hours later, animals were withdrawn from the water tank and killed with ether. The gaster was extracted and 1% formalin solution (13 ml) was injected in it. […] The gaster was observed under anatomic microscope (x10) and longer diameter (mm) of each damages (bleeding erosion) appearing around fundic glands was measured.

In another test the test system is gastric acid secretion. The experiment in a line: Basic gastric acid secretion after interruption following continuous administration (pylorus ligation). As to conditions: for total acid secretion: 10 mg/kg/day (Table 6). As to the method: as §1, §2, §3
(§4) B. Continuous administration test
(§5) (A) A group consists of animals that received vehicle (0.5% methyl cellulose solution, 1 ml/kg).
(§6) (B) A group consists of animals that received famotidine (a suspension of 10 mg famotidine in 1 ml 0.5% methyl cellulose) continuously at a dose of 10 or 30 mg/kg/day.
(§7) (C) A group consists of animals that received L-365,260 continuously at a dose of 10 mg/kg/day.
(§8) (D) A group consists of animals that received a combined formulation of famotidine and L-365,260 at a dose of 10 mg/kg/day for each compound.
(2) Basic gastric acid secretion after interruption following the continuous administration of famotidine
To a rat bred normally was administered continuously famotidine at a dose of 10 or 30 mg/kg/day for a week. After the final administration, the basis gastric acid secretion (total acid excretion) was determined according to the pylorus ligation method (4-hour-method) [Shay, H. et al., Gastroenterology, 5: 43-61 (1945)]. The determination was carried out following the final administration, […], […]
Thus, rats were subjected to laparotomy under ether anesthetization and pylorus was ligated. Four hours later, gaster was extracted under ether anaesthetization and the accumulated gastric juice was collected. After centrifugation (3000 rpm, 10 min), pH and acidity of gastric juice was determined. The acidity was measured upto pH 7.0 with 0.1N NaOH. The total acid secretion (μEq/4 hr) was calculated by multiplying acidity by the volume of juice for each animal.

Test [2] concerns aspirin-induced gastric mucosa damage. The experiment in a line: Aspirin-induced gastric mucosa damage following continuous administration. Here is the method:
as §1, §2, §3, §4, §5, §6, §7, §8
(3) Aspirin-induced gastric mucosa damage following a continuous administration of famotidine
After two-day-interruption following a continuous administration of famotidine, aspirin (200 mg/kg) was administered to rats orally. Seven hours later, gaster was extracted under ether anesthetization and subjected to formalin treatment with 1% formalin solution. The length (mm) of gastric mucosa damage appearing around fundic glands was then measured. Lesion index was calculated by adding all the measurements. Rats had been starved for 24 hr before aspirin administration (ad libitum for water).

`Cc1cccc(NC(=O)N[C@@H]2N=C(c3ccccc3)c3ccccc3N(C)C2=O)c1` [L-365,260]: the “lesion index (% to control)” value in test [1] (1 mg/kg p.o.) is given as 130.4 ± 20.6 % to control; in test [1] (3 mg/kg p.o.) it was 84.7 ± 17.4 % to control. Also, in test [1] (at either dose (1 or 3 mg/kg)), the “inhibition of appearance of stress gastric damage (in words)” value is recorded as “does not inhibit the appearance of stress gastric damage”. Also, the “acid excretion after continuous administration alone (in words)” value in the test with gastric acid secretion (alone for a week) is listed as “did not differed from those obtained in control group”. For the same compound, the total acid secretion with gastric acid secretion (day 2 after 7-day treatment) was 631.4 ± 147.9 μEq/4 hr; with gastric acid secretion (day 3 after 7-day treatment), 681.0 ± 142.9 μEq/4 hr. The “lesion index (mm^2)” value in test [2] (10 mg/kg p.o., 7 days, aspirin 200 mg/kg after two-day interruption) is listed as 43.2 ± 13.7 mm^2. In test [2] (continuous administration, two-day interruption), the “aspirin-induced gastric mucosa damage (in words)” value was “the condition seemed to have tendency to deteriorate, but it is not significant”.
